Test results as given in patent US6740666B2, “Substituted 8-arylquinoline phosphodiesterase-4 inhibitors” (Merck & Co., Inc., priority 2000, dated 2004).

Assay: Formation of metabolite in vivo after administration
Conditions: Example 19 (a PDE4 inhibitor) formed when Example 14 is administered to a mammal
Procedure: For example, Example 19, (5-{(E)-2-(3-{6-[1-methyl-1-(methylsulfonyl)ethyl]-8-quinolinyl}phenyl)-1-[4-(methylsulfonyl)phenyl]ethenyl}-1,2,4-oxadiazol-3-yl)methanol: [drawing 2]
is administered. Accordingly, the present invention includes prodrugs that form PDE4 inhibitors in vivo as a metabolite after administering such prodrugs to a mammal. Further, this invention includes a method of treatment by a step of administering a prodrug to form in vivo an effective amount of a PDE4 inhibitor described by Formula I.

metabolite formed in vivo: formed in vivo as a metabolite
SMILES: Cc1noc(/C(=C/c2cccc(-c3cc(C(C)(C)S(C)(=O)=O)cc4cccnc34)c2)c2ccc(S(C)(=O)=O)cc2)n1 [Example 14, 6-[1-methyl-1-(methylsulfonyl)ethyl]-8-[3-[(E)-2-[3-methyl-1,2,4-oxadiazol-5-yl]-2-[4-(methylsulfonyl)phenyl]ethenyl]phenyl]quinoline]
